# Assay results as given in US6589967B1, “Oxime O-ether compounds and fungicides for agricultural and horticultural use” (Nippon Soda Co. Ltd., priority 1999, dated 2003).
# Tested on: snap bean gray mold fungus (Botrytis cinerea)
# Test: Test on Kidney Bean Gray Mold Control
# Type: in vivo
# Settings: 50 ppm active ingredient, cut Kidney bean flowers (Nagauzura) dipped, spores sprayed, placed on detached leaves, 7 days at 20° C., high humidity
# Description: Now, explanation is made on how the compounds according to the present invention are effective as an active ingredient of a fungicide for controlling various plant diseases with reference to Test examples described later. In the Test Examples, the control efficacy is determined by visually checking the infested state of the test plants at the time of observation, namely, checking the damage to the host plants and the developing state of the disease-causing fungus appeared on leaves, stems, etc. of the test plants, compared to the control test plants which are healthy. Flowers of Kidney bean (variety; Nagauzura) grown in a flat vessel for culturing seedlings are cut, and the cut flowers were dipped into a solution prepared by diluting the emulsifiable concentrate prepared for the compound of the present invention at a concentration of 50 ppm based on the active ingredient. After the dipping, the flowers were dried at a room temperature. Then, spore solution of snap bean gray mold fungus (Botrytis cinerea) was sprayed to the flowers. The flowers sprayed with spores of the gray mold fungus were placed on the leaves which were detached from healthy Kidney bean plants, and those leaves were placed in a room being maintained at 20° C. and high humidity with repeated lighting of 12 hours intervals, and the Kidney bean leaves were incubated in the room for 7 days. Then, the infestation degree by the fungus on the leaves was checked in comparison to the control healthy leaves to determine the control efficacy. […] Note that the compound numbers in the following correspond to the same compound numbers in the Table 1. Compound Nos. 1, 3, 6, 7, 11, 12, 13, 14, 15, 18, 20, 21, 22, 23, 25, 26, 27, 29, 36, 48, 49, 192, 194, 195, 196, 198, 201, 203, 204, 207, 208, 209, 210, 213, 216, 219, 220, 222, 223, 224, 225, 227, 228, 229, 231, 233, 234, 235, 236, 237, 239, 240, 242
compound,measurement,value
COc1ccc(Cl)c(OC)c1CON=Cc1cc(C)cc(C)n1 [compound 242],control performance (control efficacy),excellent control performance
